Reference: patent publication US11779649B2, “Antibodies to PMEL17 and conjugates thereof” (Novartis AG, priority 2018, dated 2023)
Read-outs that look alike come from different tables or passages of the source. Positions of bridges follow the written chain, without caps; N, C: chain ends. Non-standard residues stand in square brackets, D forms with d. Residues, ends and D or L forms follow the SMILES beside them. Leu(3R-O(AcLeu(3R-OH))) = CC(=O)N[C@H](C(=O)O[C@H](C(C)C)[C@H](N)C(=O)O)[C@H](O)C(C)C; NMeT = CN[C@H](C(=O)O)[C@@H](C)O; dPhLac = O=C(O)[C@H](O)Cc1ccccc1; NMeA = CN[C@@H](C)C(=O)O; NMeDha = C=C(NC)C(=O)O

What was measured:
[1] = tested on: 92.1 uveal melanoma; experiment: Resazurin-based viability assay, 92.1 uveal melanoma cells; format: cell-based
[2] = tested on: MIAPACA pancreatic ductal adenocarcinoma cells; experiment: Resazurin-based viability assay, MIAPACA cells; format: cell-based; details: Homo sapiens, MIA PaCa-2, WT, 96 or 120 hours, Table 4
Description: 92.1 uveal melanoma and MIAPACA pancreatic ductal adenocarcinoma cells were seeded at low cell density in 96-well plates and treated with increasing concentrations of Compound (A1) or Compound (A2) as indicated. Following drug treatment for 96 or 120 hours, cell viability and proliferation were determined using a resazurin-based viability assay. Briefly, cells were incubated with a resazurin-based solution and color change was detected by absorbance with a spectrophotometer and used as a readout of cell viability. Data presented as mean of 3 independent replicates and relative to PBS-treated cells (control).

[3] = Stability of Compound (A2), hepatic microsomes, rat; format: in vitro ADME; details: intrinsic clearance
Description: (§1) In vitro stability of Compound (A2) was tested in plasma and blood from different species (FIG. 5A). […]

[4] = tested on: 92.1 cells; experiment: Annexin V flow cytometry apoptosis assay, 92.1 cells; format: cell-based; details: 92.1 and MIAPACA cells, FIG. 2
Description: 92.1 and MIAPACA cells were seeded in 96-well plates (5000 cells per well) and treated with increasing concentrations of Compound (A1), Compound (A2), and a fixed dose of Staurosporine (100 nM, positive control) as indicated. Following drug treatment for 96, cells were subjected to fluorescence-activated flow cytometry using an Annexin V antibody conjugated to a fluorescent dye. Data presented as mean of 3 independent replicates.
92.1 cells were seeded in 96-well plates (5000 cells per well) and treated with increasing concentrations of Compound (A1), 3207-(B1) (Isotype control), G4-(B1), and G1-(B1) as indicated. Following drug treatment for 96, cells were subjected to fluorescence-activated flow cytometry using an Annexin V antibody conjugated to a fluorescent dye. Data presented as mean of 3 independent replicates.

[5] = Stability of Compound (A2), hepatic S9 fraction, mouse; format: in vitro ADME; details: read-out: Hepatic S9 (+/−NADPH) t½ (converted)
Description: as §1

[6] = Stability of Compound (A2), plasma, human; format: in vitro ADME; details: read-out: Plasma t½ (converted)
Description: as §1

[7] = Stability of Compound (A2), plasma, mouse; format: in vitro ADME; details: read-out: Plasma t½ (converted)
Description: as §1

[8] = Stability of Compound (A2), plasma, rat; format: in vitro ADME; details: read-out: Plasma t½ (converted)
Description: as §1

[9] = Stability of Compound (A2), hepatic S9 fraction, human; format: in vitro ADME; details: read-out: Hepatic S9 (+/−NADPH) t½ (converted)
Description: as §1

[10] = PK of Compound (A2) in female balb/c mice; format: in vivo
Description: as §1

[11] = Stability of Compound (A2), hepatocytes, rat; format: in vitro ADME
Description: as §1

[12] = Chemical stability of Compound (A2) in three different systems; format: physicochemical; details: FIG. 5B
Description: as §1

[13] = Stability of Compound (A2), hepatic S9 fraction, rat; format: in vitro ADME
Description: as §1

[14] = tested on: GNAQ/11; experiment: IP1 levels by TR-FRET in 92.1 uveal melanoma cells; format: cell-based; details: 92.1 cells, overnight treatment, FIG. 3A
Description: (§2) 92.1 uveal melanoma were treated with increasing concentrations of Compound (A1) or Compound (A2) as indicated. Following drug treatment overnight, cells were processed for determination of IP1 levels using TR-FRET (time-resolved fluorescent resonance energy transfer) or protein levels by western-blotting.
92.1 uveal melanoma were treated with DMSO, Compound (A1) (8 nM) and increasing concentrations of Isotype-(B1), anti-PMEL17-(B1) and anti-PMEL17-(B2) ADCs as indicated. Following drug treatment for 2 days, cells were processed for determination of IP1 levels using TR-FRET (time-resolved fluorescent resonance energy transfer). IP1 levels (nM) are presented as mean of 3 independent replicates.

[15] = tested on: ERK signaling; experiment: Western-blotting of 92.1 cells, ERK signaling; format: cell-based; details: FIG. 3C
Description: as §2

[16] = Stability in buffer at pH 5.6 and in lysosomes; format: in vitro ADME; details: buffer pH 5.6, lysosomes, 4 h, FIG. 5D
Description: as §1

[17] = Stability of Compound (A2), hepatocytes, human; format: in vitro ADME
Description: as §1

[18] = Stability of Compound (A2), hepatic microsomes, mouse; format: in vitro ADME; details: intrinsic clearance
Description: as §1

[19] = Stability of Compound (A2), hepatic microsomes, human; format: in vitro ADME; details: intrinsic clearance
Description: as §1

With `C=C1C(=O)N[C@@H](C)C(=O)N(C)[C@@H](C)C(=O)N[C@@H]([C@H](OC(=O)[C@@H](NC(C)=O)[C@H](O)C(C)C)C(C)C)C(=O)N(C)[C@@H]([C@@H](C)OC)C(=O)O[C@H](C)[C@H](NC(C)=O)C(=O)O[C@H](Cc2ccccc2)C(=O)N1C` [Compound (A2), (R)-1-((3S,6S,9S,12S,18R,21S,22R)-21-acetamido-18-benzyl-3-((R)-1-methoxyethyl)-4,9,10,12,16,22-hexamethyl-15-methylene-2,5,8,11,14,17,20-heptaoxo-1,19-dioxa-4,7,10,13,16-pentaazacyclodocosan-6-yl)-2-methylpropyl (2S,3R)-2-acetamido-3-hydroxy-4-methylpentanoate] (Ac-T[dPhLac][NMeDha]A[NMeA][Leu(3R-O(AcLeu(3R-OH)))][NMeT](Me); ester 1-C) the GI50 ([1]; 92.1, GNAQ^Q209L, 96 or 120 hours, Table 4, read-out: GI50) was 7.7 nM, the GI50 ([1]; 92.1 GNAQ^Q209L, Table 1, read-out: GI50 (nM) 92.1GNAQ^Q209L) was 22.1 nM and the anti-UM activity ([1]; 92.1 vs MIAPACA, FIG. 1) was “potent target-dependent anti-UM activity”. The GI50 [2] was greater than 10000 nM, the “Hepatic microsomes” value [3] was 0.033 mL/min/kg and the “apoptosis (Annexin V)” value [4] was “induced apoptosis in UM cells in GNAQ/11 dependent manner”. The half-life ([5]; +NADPH) was 1.9 h, the half-life ([5]; −NADPH) was greater than 2 h and the half-life [6] was 2 h. For the same compound, the half-life [7] was 2.1 h, the half-life [8] was 4.1 h and the half-life ([9]; +NADPH) was 1.9 h. The half-life ([9]; −NADPH) was greater than 2 h, the clearance ([10]; FIG. 5C) was “high clearance” and the elimination half-life ([10]; FIG. 5C) was “short elimination half-life”. For the same compound, the half-life ([10]; mouse, in vivo, 1 mg/kg iv) was 0.4 ± 0.01 h, the clearance ([10]; mouse, in vivo, 1 mg/kg iv, read-out: CL) was 175 ± 29 mL/min/kg and the “Hepatocytes (ul/min/10^6 cells)” value [11] was 8 ul/min/10^6 cells. The chemical stability [12] was “good chemical stability in three different systems”, the half-life ([13]; hepatic S9 fraction, +NADPH, read-out: Hepatic S9 (+/−NADPH) t½) was greater than 2 h and the “Hepatic S9 (+/−NADPH) t½ (h)” value ([13]; −NADPH) was >2/>2 h. The IP1 levels [14] was “reduced IP1 levels”, the “ERK signaling (immunoblots)” value [15] was “reduced ERK signaling” and the “stability in buffer and lysosomes” value [16] was “stable in buffer at pH 5.6 and in lysosomes over 4 h”. For the same compound, the “Hepatocytes (ul/min/10^6 cells)” value [17] was less than 4 ul/min/10^6 cells, the “Hepatic microsomes” value [18] was 0.107 mL/min/kg and the “Hepatic microsomes” value [19] was 0.044 mL/min/kg.
